{"source": "patent US20190046552A1", "about": "“COMPOSITIONS AND METHODS FOR THE TREATMENT OF HCV INFECTION” (priority 2015, published 2019)", "key": {"[1]": {"system": "HCV RNA", "test": "Part B (MAD): antiviral response (HCV RNA viral load) in treatment naive subjects with chronic HCV infection", "format": "in vivo, human", "description": "Part B was a blinded, randomized, placebo-controlled MAD study consisting of four cohorts of eight subjects randomized 6:2 to receive Formula (IIa) or placebo. A total of 30 treatment naïve subjects with CHC infection were enrolled in and a total of 29 subjects (22 subjects administered Formula (IIa) and 7 subjects administered placebo) completed Part B of the study. One subject administered placebo withdrew from the study on Day 2. Subjects infected with HCV-1 and HCV-3 genotypes were enrolled, and no subjects infected with HCV-2 participated in the study. To control for the possible effect of the IL28b genotype, the number of subjects with CC alleles was capped at three per cohort.\nThe starting dose was determined by the SRC based on review of all safety and any available PK/PD data from Part A. All subjects were dosed in the fasted state with Formula (IIa) daily, from Day 1 until […]. All subjects had nothing by mouth other than water for at least 10 hours prior to daily dosing and for 4 hours thereafter. In Part B, all subjects were administered the study medication orally with approximately 240 mL of water at the same time every day (+/−10 minutes).\nA subset of blood samples shown in Table 3 above was used for the PK evaluation of plasma trough concentrations (Table 4). […]"}, "[2]": {"system": "HCV replicon cell line AVA5 [sub-genomic (CON1), genotype 1b]", "test": "3-day HCV replicon antiviral assay (blot hybridization of intracellular HCV RNA), alone and with sofosbuvir", "format": "cell-based", "details": "Hepatitis C virus, Ava5, 72 h, read-out: IC50 (intracellular HCV RNA)"}, "[3]": {"system": "HCV from sera of patients infected with resistant strains", "test": "Capture fusion assay: THP-1 cells infected with patient serum, fused with Huh7.5, HCV RNA by PCR", "format": "cell-based", "details": "for IC50: Hepatitis C virus", "procedure": "Serum samples were taken from 30 patients who had either responded to or previously failed treatment with combination peg-interferon/ribavirin and a direct acting antiviral (DAA), e.g., sofosbuvir and ledipasvir, or DAA treatment alone (FIG. 16). The anti-HCV activity of Formula (IIa) was assessed using the capture fusion assay. Briefly, pre-stimulated THP-1 cells were infected with serum from donors chronically infected with the common HCV genotypes G1 or G3, or from patients infected with the less prevalent G2, G4 or G6 HCV. The hybrid cells were treated once with a range of concentrations of Formula (IIa). For comparison, fused cells infected with G1 and G3 sera were treated with telaprevir or alisporivir. The cells were cultured for 5 days, before quantification of HCV RNA by PCR. Dose-response curves were used to calculate IC50 values for each experiment. The detailed assay protocol is outlined below.\nHuh7.5 and Huh7 cells were maintained in Dulbecco's modified Eagle medium with glutamine supplemented with 10% fetal calf serum and 1% penicillin/streptomycin (DMEM/10% FCS/PS). THP-1 cells were maintained in RPMI with glutamine supplemented with 10% fetal calf serum and 1% penicillin/streptomycin (RPMI/10% FCS/PS). Peripheral blood mononuclear cells (PBMC) and sera were obtained from patients with chronic HCV infection, with informed consent. Cytokines used were phorbol 12-myristate 13-acetate (PMA, Sigma-Aldrich, Dorset, UK), IFNγ (Invitrogen, Paisley, UK) and osteopontin (R&D Systems, Abingdon, UK). Primary antibodies used were anti-albumin (Dako, Glostrup, Denmark), anti-CD81 (BD Biosciences, Oxford, UK), anti-SR-B1 (Novus Biologicals, Cambridge, UK), anti-CD32 and anti-CD64 (Abcam, Cambridge, UK). Mouse IgG1 isotype control was purchased from Biolegend UK (London, UK). Fluorescent secondary antibodies AlexaFluor488 and 594 anti-sheep, anti-mouse and anti-rabbit IgG were purchased from Invitrogen.\nPBMCs were separated from whole blood by centrifugation on Ficoll-Paque. The PBMC layer was washed twice before positive selection of CD14+ cells by magnetic separation. Huh7.5 cells were trypsinized and combined with CD14+ cells at a 1:1 ratio. After removal of all supernatant, the cell pellet was slowly resuspended in prewarmed polyethylene glycol 1500 (Roche Diagnostics, Burgess Hill, UK). After incubation at 37° C. for 2 minutes, prewarmed medium (DMEM/10% FCS/PS) was added dropwise and the cells washed by centrifugation. The fused cells were seeded into 6 well plates at a density of 5×10^5 cells/mL and maintained at 37° C. until RNA extraction.\nTHP-1 cells were seeded into 6 well plates at a density of 10^6 cells/mL and maintained in RPMI supplemented with 10% fetal calf serum and 1% penicillin/streptomycin (RPMI/10% FCS/1% PS) for 18 hours, with or without the addition of cytokines. The cells were washed three times and the medium replaced with RPMI/2% FCS and patient serum at a ratio of 1 HCV copy per cell. For antibody blocking experiments, cells were incubated with blocking antibody at 37° C. for one hour before addition of patient serum. After incubation at 37° C. for 18-24 hours, the supernatant was removed and cells were washed three times. Adherent cells were removed using a cell scraper and Huh7.5 cells added at a 1:1 ratio. Cell fusion was performed as described above. The fused cells were seeded into 6 well plates at a density of 10^5 cells/mL and maintained at 37° C. in the presence or absence of antiviral drugs for up to 7 days. In selected experiments, supernatants were pooled from non-drug treated wells and concentrated on a sucrose gradient. In brief, the pooled supernatants were filtered through a 0.45 μm filter then 10 mL of each was layered on 4 mL 20% sucrose. The supernatants were centrifuged at 24,000×g for 2 hours and the resulting pellet resuspended in 1 mL RPMI. […]"}}, "note": "Where two headings read alike, the source gives them in different places.", "data": [{"smiles": "CO[C@H]1C(OP(=O)(OC[C@H]2O[C@@H](n3cnc4c(N)ncnc43)CC2O)SCOC(=O)OC(C)C)[C@@H](CO)O[C@H]1n1ccc(=O)[nH]c1=O", "note": "(stereo partly shown) [Formula (IIa)]", "values": [{"measurement": "Peak individual viral load drop", "setting": "[1]; 200 mg Formula (IIa) QD", "result": 1.5, "unit": "log10"}, {"measurement": "Peak individual viral load drop", "setting": "[1]; 400 mg Formula (IIa) QD", "result": 1.9, "unit": "log10"}, {"measurement": "IC50", "setting": "[2]", "result": 31.7, "unit": "nM"}, {"measurement": "IC50", "setting": "[3]; five selected patient samples with NS5A mutations (Example 4, FIGS. 18A-18E), read-out: IC50 range", "result": "≥ 1", "unit": "nM"}, {"measurement": "IC50", "setting": "[3]; genotype 3, genotype 3, treatment experienced group, mean±sem", "result": 22, "unit": "nM"}, {"measurement": "IC50", "setting": "[3]; genotype 3, genotype 3, treatment naive group, mean±sem, read-out: IC50", "result": "26 ± 7", "unit": "nM"}, {"measurement": "IC50", "setting": "[3]; patient sample post-peg/RBV treatment, read-out: IC50", "result": 455, "unit": "nM"}, {"measurement": "IC50", "setting": "[3]; patient sample pre-peg/RBV treatment, read-out: IC50", "result": 450, "unit": "nM"}, {"measurement": "IC50", "setting": "[3]; sample from patient 7 prior to administration of telaprevir, FIG. 14A, read-out: IC50", "result": 450, "unit": "nM"}, {"measurement": "IC50", "setting": "[3]; sample from patient 22, repeated relapse after combination interferon and ribavirin therapy (IFN resistant), FIG. 12A, read-out: IC50", "result": 24, "unit": "nM"}, {"measurement": "IC50", "setting": "[3]; sample from patient 23, relapse of HCV infection (IFN resistant), FIG. 12B, read-out: IC50", "result": 5.46, "unit": "nM"}, {"measurement": "IC50", "setting": "[3]; sample from patient 25 after treatment with telaprevir, FIG. 14B, read-out: IC50", "result": 6.4, "unit": "nM"}, {"measurement": "IC50", "setting": "[3]; serum sample from patient 30, sofosbuvir resistant strain, FIG. 13C, read-out: IC50", "result": 4, "unit": "nM"}, {"measurement": "IC50", "setting": "[3]; serum samples from 30 patients (Example 3), read-out: IC50 range for all patient samples", "result": "1 to 455", "unit": "nM"}, {"measurement": "genotype coverage of anti-HCV activity", "setting": "[3]; patient sera of HCV genotypes G1, G3, G2, G4 or G6", "result": "pan-genotypic activity"}, {"measurement": "sensitivity of sample to treatment", "setting": "[3]; post-treatment sample of patient who relapsed after sofosbuvir-containing therapy, FIG. 24C", "result": "sensitive"}]}]}
